Measurements from patent US20260355332A1, “ANTIBODY-DRUG CONJUGATE, AND PREPARATION METHOD THEREFOR AND USE THEREOF” (MEDILINK THERAPEUTICS (SUZHOU) CO., LTD., priority 2022, published 2026).
“Also recorded” adds a separate entry of the source.

Tested on: tumor cells
Assay: Assay 2: inhibitory activity of bioactive molecules on tumor cells (CCK8), overall
Format: cell-based
Details: Example 6.2; multiple tumor cell lines
Description: Firstly, tumor cells NUCG-4, PC-9, HT29, NCI-H358, KYSE520, A431, and A549 were cultured. The bioactive molecules or fragments of the present disclosure were co-cultured with the tumor cells, and then a CCK8 reagent (Dojindo China Co., Ltd., Cat: CKO4, Lot: JJ744) was added. Readings were taken using a microplate reader (manufacturer: Molecular Devices, model: SpectraMax M2) (detection wavelength: 450 nm) to determine the activity of dehydrogenase in the mitochondria, so as to evaluate the inhibitory effects of the bioactive molecules on cell proliferation.
The in vitro cell activity was assayed as follows: Tumor cells were digested by a conventional method using trypsin, collected in a tube, counted, resuspended in the corresponding assay medium (containing 2% FBS), and added to a 96-well plate at 5000-10000 cells/well. Bioactive molecules diluted with DMSO (starting at a concentration of 10 μM, with a 3-fold dilution (12 concentration gradients)) were added to the 96-well plate at 100 μL/well, and the plate was incubated at 37° C. with 5% CO2 for 3-4 days. Subsequently, 20 μL of CCK8 reagent was added to each well, and the mixture was allowed to react for 2-6 h. Readings were then taken using a microplate reader (detection wavelength: 450 nm).

| Structure (SMILES) | tumor cell-killing effect (in words) |
| --- | --- |
| CC[C@@]1(O)C(=O)OCc2c1cc1n(c2=O)Cc2c-1nc1cc3c(cc1c2CCCO)OCO3 [Example A1.9, (S)-7-ethyl-7-hydroxy-14-(3-hydroxypropyl)-10,13-dihydro-11H-[1,3]dioxolo[4,5-g]pyrano[3′,4′:6,7]indolizino[1,2-b]quinoline-8,11(7H)-dione] | had tumor cell-killing effects; also recorded: stronger tumor-killing effect than Dxd in multiple tumor cell lines |
| CC[C@@]1(O)C(=O)OCc2c1cc1n(c2=O)Cc2c-1nc1cc3c(cc1c2CCCOCNC(=O)CN)OCO3 [Example B1.14, (S)-2-amino-N-((3-(7-ethyl-7-hydroxy-8,11-dioxo-7,8,11,13-tetrahydro-10H-[1,3]dioxolo[4,5-g]pyrano[3′,4′:6,7]indolizino[1,2-b]quinolin-14-yl)propoxy)methyl)acetamide] | had tumor cell-killing effects |
